Measurements reported in patent US10011818B2, “Method for in vitro oocyte maturation” (CHINA AGRICULTURE UNIVERSITY, priority 2012, dated 2018).
Read-outs that look alike come from different tables or passages of the source.

Experiments:
[1] = system: oocyte nuclear maturation; conditions: cited from earlier work
oocyte meiotic arrest = conditions: mice, Zhang et al., 2010; cited from earlier work
[2] = system: oocyte maturation and embryonic development; conditions: CNP pretreatment 100 nM alone, without extended IVM; cited from earlier work
bovine oocytes [3] = experiment: Effect of CNP pre-IVM and extended IVM on developmental rate of bovine oocytes after IVF (cleavage, blastocyst); assay type: cell-based; conditions: for No. of cleavage / cleavage (%) / No. of blastocysts / blastocysts (%): CNP 200 nM pre-IVM 6 h; for No. of cleavage: day 2; for cleavage (%): day 2, mean ± SEM; for No. of blastocysts: day 7; for blastocysts (%): day 7, mean ± SEM
Description: (§1) Bovine ovaries were obtained from a local slaughterhouse, transported at 30-35° C. to the laboratory within 1 hour, and washed in warmed normal saline containing 2% Penicillin G-Streptomycin. Ovarian antral follicles (3-8 mm) were aspirated using an 18-gauge needle. cumulus-oocyte complexes (COCs) with homogenous oocyte cytoplasm and complete, compacted, and multilayered CCs (Grade-1) or complete but fewer than three layers of CCs (Grade-2), were collected using micropipettes.
(§2) Grade-1 and -2 COCs were washed in the washing buffer (HEPES-TCM199) for three times, and then washed in pre-IVM medium (TCM199 containing 3 mg/ml BSA and CNP at different concentrations (50, 100, 200 and 400 nM) for two times. After that, COCs were transfer into pre-IVM medium (pre-warmed for 2 hours) in 4-well plate (500 μl pre-IVM medium and 50 COCs in each well) and cultured for 6 hours at 38.5° C., in humidified air with 5% CO2. After pre-IVM phase, a proportion of COCs are digested with hyaluronidase to remove cumulus cells. To determine the most preferable concentration of CNP for pre-VIM, meiosis kinetics of oocytes was evaluated according to nuclear morphology using DAPI staining under a fluorescence microscope. The oocytes without pre-IVM phase are used as control.
After cultured in pre-IVM medium containing 200 nM CNP, COCs are further cultured in extended-IVM medium (TCM199 supplemented with 10 μg/ml FSH, […], 1 μg/ml E2, 10 ng/ml EGF, 10% FBS) at 38.5° C., in humidified air with 5% CO2. To determine the most preferable duration for extended-IVM, COCs were cultured for 24, 26 or 28 hours. In addition, COCs without pre-IVM phase, are also cultured in […] for 24, 26 or 28 hours as controls.
After maturation, the COCs were fertilized in BO medium for 8 hours at 39° C. under 5% CO2 in a humidified atmosphere. After fertilization, the presumptive zygotes were transferred to 100 μl CR1 culture medium droplets (15 zygotes in each droplets) at 39° C. in a humidified atmosphere. The culture medium was changed every 2 days during the culture period. The percentage cleavage and rates of subsequent embryo development to the blastocyst stage were recorded on day 2 and 7, respectively.

bovine oocytes [4] = experiment: Effect of CNP pretreatment (pre-IVM) on meiotic resumption of bovine oocytes, nuclear morphology by DAPI staining; assay type: cell-based; conditions: for No. of GV oocytes / No. of GVBD oocytes / GV oocytes (%) / GVBD oocytes (%): pre-IVM 6 hours; for GV oocytes (%) / GVBD oocytes (%): mean ± SEM
Description: as §1, §2

[5] = system: bovine oocytes and subsequent preimplantation embryos
[6] = literature, chemical meiotic inhibitors

## CN(C)c1ncnc2nc[nH]c12 [6-DMAP]
[1]; [6]
  inhibitory effect on nuclear maturation: evident inhibitory effect

## O=C1CCCO1 [butyrolactone]
[1]; [6]
  inhibitory effect on nuclear maturation: evident inhibitory effect

## C[C@@H]1C[C@@H]([C@H](O)CC2CC(=O)NC(=O)C2)C(=O)[C@@H](C)C1 [cycloheximide]
[1]; [6]
  inhibitory effect on nuclear maturation: evident inhibitory effect

## CC[C@H](CO)Nc1nc(NCc2ccccc2)c2ncn(C(C)C)c2n1 [roscovitine]
[1]
  inhibitory effect on nuclear maturation: evident inhibitory effect

## C-type natriuretic peptide [CNP]
Oocyte meiotic arrest
  preferable concentration of CNP for meiotic inhibition: 100 nM
[2]
  oocyte maturation and embryonic development result: could not lead to an evidently satisfying results
Bovine oocytes [3]; extended-IVM 24 h, after IVF
  No. of cleavage: 157
  cleavage (%): 81.3 ± 2.7%
  No. of blastocysts: 53
  blastocysts (%): 27.5 ± 1.3%
Bovine oocytes [3]; extended-IVM 26 h, after IVF
  No. of cleavage: 89
  cleavage (%): 87.1 ± 0.75%
  No. of blastocysts: 62
  blastocysts (%): 28.6 ± 0.7%
Bovine oocytes [3]; extended-IVM 28 h, after IVF
  No. of cleavage: 186
  cleavage (%): 88.3 ± 3.0%
  No. of blastocysts: 80
  blastocysts (%): 37.4 ± 2.5%
Bovine oocytes [3]; CNP pre-IVM plus extended IVM (novel method)
  blastocyst rates: significantly enhances blastocyst rates
Bovine oocytes [3]; CNP pre-treatment followed by extended IVM phase, after IVF
  cleavage rates versus counterparts without CNP pre-IVM: significantly higher
Bovine oocytes [4]; CNP 50 nM
  No. of GV oocytes: 64
  No. of GVBD oocytes: 37
  GV oocytes (%): 63.4 ± 3.1%
  GVBD oocytes (%): 21.3 ± 3.1%
Bovine oocytes [4]; CNP 100 nM
  No. of GV oocytes: 68
  No. of GVBD oocytes: 30
  GV oocytes (%): 69.4 ± 2.6%
  GVBD oocytes (%): 30.6 ± 2.6%
Bovine oocytes [4]; CNP 200 nM, P<0.01
  rate of oocytes maintaining at GV stage versus control: significant higher
Bovine oocytes [4]; CNP 200 nM
  No. of GV oocytes: 79
  No. of GVBD oocytes: 18
  GV oocytes (%): 81.4 ± 2.1%
  GVBD oocytes (%): 19.6 ± 2.1%
Bovine oocytes [4]; CNP 400 nM
  No. of GV oocytes: 79
  No. of GVBD oocytes: 27
  GV oocytes (%): 74.5 ± 2.8%
  GVBD oocytes (%): 25.5 ± 2.8%
Bovine oocytes [4]; concentration higher than 400 nM or lower than 100 nM
  inhibitory effect on meiotic resumption outside the range: no evident inhibitory effect
Bovine oocytes [4]; dose-dependent pattern, bovine oocytes
  concentration of maximal inhibitory effect on meiotic resumption: 200 nM
Bovine oocytes [4]; pre-IVM pretreatment, bovine oocytes
  concentration range with significant inhibition of oocyte meiotic resumption: 100 to 400 nM
[5]
  adverse effect on bovine oocytes and subsequent preimplantation embryos: doesn't show any evident adverse effect
